Assay results as given in PMC9790248, “Effects of CYP3A Inhibition, CYP3A Induction, and Gastric Acid Reduction on the Pharmacokinetics of Ripretinib, a Switch Control KIT Tyrosine Kinase Inhibitor” (Clinical Pharmacology in Drug Development, 2022).
Where two headings read alike, the source gives them in different places.

Columns and labels:
[1] = Solubility; type: physicochemical
[2] = Rifampin (strong CYP3A inducer) DDI study, plasma pharmacokinetics; type: in vivo, human; conditions: for AUC(0-t) / AUC(0-inf) / Cmax / half-life / Tmax: both sexes, human, plasma; for AUC(0-t) / AUC(0-inf) / Cmax / half-life: po; for Tmax: read-out: tmax, median (min, max); for Time postdose that mean plasma concentration remained above the LLOQ: LLOQ 2.00 ng/mL
Protocol: All studies were phase 1, fixed‐sequence, open‐label studies in healthy volunteers. One study consisted of two separate cohorts examining DDIs between ripretinib and itraconazole or pantoprazole, respectively; the rifampin study was conducted separately. Studies and cohorts were enrolled independently. Eligible participants were healthy male or female adults between 18 and 55 years of age with a body mass index (BMI) of ≥18.5 and ≤30 kg/m^2. Good health was confirmed by a physician and based on medical evaluation with no significant findings, including medical history, physical examination, laboratory tests, and 12‐lead electrocardiogram (ECG) at screening and day −1. Participants were required to abstain from alcohol, marijuana, grapefruit, Seville oranges, tangelo, star fruit, and grapefruit‐like products 14 days prior to and during the study. Participants with a positive breath test for Helicobacter pylori were excluded from the pantoprazole study.
(§1) Participants were confined to the study center from days −1 through 22 for the collection of plasma PK samples and all study procedures. Participants received an oral dose of ripretinib 100 mg on day 1 under fasting conditions; a higher dose of ripretinib was used than in the itraconazole or pantoprazole study due to the potential for decreased ripretinib exposure when coadministered with a strong CYP3A inducer (Figure 1B). On day 8, participants received oral doses of rifampin 600 mg once daily 1 hour before a meal with a full glass of water for 14 consecutive days through day 21. On day 18, participants received a second dose of ripretinib 100 mg administered simultaneously with rifampin 600 mg under fasting conditions. Blood samples for PK analysis were collected at predose and 1, 2, 3, 4, 5, 8, 10, 12, 24, 36, 48, 72, and 96 hours after administration of ripretinib on days 1 and 18. Safety was assessed throughout the study period and with a follow‐up phone call on day 29 or 7 days after discontinuation in the case of early withdrawal.
Ripretinib and its active metabolite DP‐5439 plasma concentrations were measured using a validated high‐performance liquid chromatography (HPLC) with tandem mass spectrometry (LC‐MS/MS) assay with a lower limit of quantification (LLOQ) of 2.00 ng/mL for both analytes. In this method, the analytes (ripretinib and DP‐5439) and the internal standards (ISs; DCC‐2618‐d5 and DP‐5439‐d5) were released from human plasma samples by protein precipitation. The supernatants were chromatographed using reversed‐phase HPLC with a Betasil® C8 analytical column with deionized water (0.1% formic acid) and 40/60 acetonitrile/acetone (0.1% formic acid) as the mobile phase. Mass spectrometric detection was performed on a triple quadrupole tandem mass spectrometer API 5000 or API 5500 (Applied Biosystems/MDS Sciex, Toronto, Canada) equipped with a turbo ion spray source operated in the positive ionization mode. The source parameters were collision energy 40 eV, collision gas 6 psi, Nebulizer Gas 1, Turbo IonSpray Gas 2, and curtain gas 35 psi. Quantification was obtained by using multiple reaction monitoring mode of the transitions of mass to charge ratio [m/z] 510.3 →417 for DCC‐2618 (ripretinib), m/z 496.2 →403 for DP‐5439, m/z 515.3 →417 for DCC‐2618‐d5, and m/z 501.2 →403 for DP‐5439‐d5.
Plasma concentration–time data were analyzed using noncompartmental methods using Phoenix® WinNonlin® v7.0 (Certara USA Inc., Princeton, New Jersey). Derived PK parameters included area under the concentration–time curve from time 0 to time t (AUC0–t) and area under the concentration–time curve from 0 to infinity (AUC0–∞), maximum observed concentration (Cmax), time of maximum observed concentration (tmax), elimination half‐life (t1/2), apparent systemic clearance, and for DP‐5439, metabolite to parent ratio for AUC0–t, AUC0–∞, and Cmax. […]

[3] = Stability in human plasma (K2EDTA), bioanalytical validation; type: in vitro ADME; conditions: with or without concomitant medications
Protocol: Following the bioanalytical method validation guidance, the analytical method was validated to verify that the assay was a robust and reliable measurement of ripretinib and DP‐5439 in human plasma with dipotassium ethylenediaminetetraacetic acid (K2EDTA) as the anticoagulant. The linear range of method was 2.00–1000 ng/mL for both ripretinib and DP‐5439. The coefficient of variation (CV%) (precision) for intra‐ and interassay at each quality control (QC) level was ≤15.0% (≤20.0% at the LLOQ QC level: 2 ng/mL for both ripretinib and DP‐5439). The mean % Bias (accuracy) at each QC level was within ±15.0% (±20.0% at the LLOQ QC level) from its respective nominal concentration.

[4] = Safety assessment (TEAEs), rifampin study; type: in vivo, human
Protocol: as §1
Relationship to study drug was assessed by the investigator.
Safety data were summarized as n (%).

[5] = ripretinib 100 mg single oral dose + rifampin 600 mg QD, fasting, healthy participants (N = 21)
[6] = ripretinib 100 mg single oral dose alone, fasting, healthy participants (rifampin study, N = 21)
[7] = ripretinib 100 mg with rifampin 600 mg QD relative to ripretinib alone
[8] = ripretinib 100 mg with rifampin 600 mg QD relative to ripretinib alone, listed as ripretinib

CCn1c(=O)c(-c2cc(NC(=O)Nc3ccccc3)c(F)cc2Br)cc2cnc(NC)cc21 [Ripretinib]
Solubility, pH dependence [1]: reduced solubility at neutral pH
AUC(0-t) ([2]; 100 mg, ripretinib 100 mg single oral dose alone, fasting, healthy participants (rifampin study, N = 21), read-out: AUC0–t, arithmetic mean (SD)): 6620 ng·h/mL
AUC(0-t) ([2]; 100 mg, ripretinib 100 mg single oral dose alone, fasting, healthy participants (rifampin study, N = 21), read-out: AUC0–t, geometric mean (CV%)): 5720 ng·h/mL
AUC(0-inf) ([2]; 100 mg, ripretinib 100 mg single oral dose alone, fasting, healthy participants (rifampin study, N = 21), read-out: AUC0–∞, arithmetic mean (SD)): 6220 ng·h/mL
AUC(0-inf) ([2]; 100 mg, ripretinib 100 mg single oral dose alone, fasting, healthy participants (rifampin study, N = 21), read-out: AUC0–∞, geometric mean (CV%)): 5820 ng·h/mL
Cmax ([2]; 100 mg, ripretinib 100 mg single oral dose alone, fasting, healthy participants (rifampin study, N = 21), read-out: Cmax, arithmetic mean (SD)): 392 ng/mL
Cmax ([2]; 100 mg, ripretinib 100 mg single oral dose alone, fasting, healthy participants (rifampin study, N = 21), read-out: Cmax, geometric mean (CV%)): 363 ng/mL
half-life ([2]; 100 mg, ripretinib 100 mg single oral dose alone, fasting, healthy participants (rifampin study, N = 21), read-out: t1/2, arithmetic mean (SD) (converted)): 15 h
half-life ([2]; 100 mg, ripretinib 100 mg single oral dose alone, fasting, healthy participants (rifampin study, N = 21), read-out: t1/2, geometric mean (CV%) (converted)): 15 h
AUC(0-t) ([2]; ripretinib 100 mg single oral dose + rifampin 600 mg QD, fasting, healthy participants (N = 21), read-out: AUC0–t, arithmetic mean (SD)): 2360 ng·h/mL
AUC(0-t) ([2]; ripretinib 100 mg single oral dose + rifampin 600 mg QD, fasting, healthy participants (N = 21), read-out: AUC0–t, geometric mean (CV%)): 2230 ng·h/mL
AUC(0-inf) ([2]; ripretinib 100 mg single oral dose + rifampin 600 mg QD, fasting, healthy participants (N = 21), read-out: AUC0–∞, arithmetic mean (SD)): 2400 ng·h/mL
AUC(0-inf) ([2]; ripretinib 100 mg single oral dose + rifampin 600 mg QD, fasting, healthy participants (N = 21), read-out: AUC0–∞, geometric mean (CV%)): 2270 ng·h/mL
Cmax ([2]; ripretinib 100 mg single oral dose + rifampin 600 mg QD, fasting, healthy participants (N = 21), read-out: Cmax, arithmetic mean (SD)): 321 ng/mL
Cmax ([2]; ripretinib 100 mg single oral dose + rifampin 600 mg QD, fasting, healthy participants (N = 21), read-out: Cmax, geometric mean (CV%)): 299 ng/mL
half-life ([2]; ripretinib 100 mg single oral dose + rifampin 600 mg QD, fasting, healthy participants (N = 21), read-out: t1/2, arithmetic mean (SD) (converted)): 7 h
half-life ([2]; ripretinib 100 mg single oral dose + rifampin 600 mg QD, fasting, healthy participants (N = 21), read-out: t1/2, geometric mean (CV%) (converted)): 7 h
Tmax [2, 5]: 3 h
Tmax [2, 6]: 3 h
Exposure when combined with rifampin, relative to ripretinib alone ([2]; ripretinib 100 mg + rifampin 600 mg QD): less than half
Time postdose that mean plasma concentration remained above the LLOQ ([2]; ripretinib 100 mg alone (rifampin study)): up to 96 hours
CL/F, arithmetic mean (SD) [2, 5]: 47 (16) L/h
CL/F, geometric mean (CV%) [2, 5]: 44 (35) L/h
t1/2, geometric mean (CV%) [2, 5]: 6 (46) h
CL/F, arithmetic mean (SD) [2, 6]: 18 (7) L/h
CL/F, geometric mean (CV%) [2, 6]: 17 (39) L/h
Geometric LS mean ratio of AUC0–t [2, 7]: 39%
Geometric LS mean ratio of AUC0–∞ (90% CI) [2, 7]: 39 (35–44) %
Geometric LS mean ratio of Cmax (90% CI) [2, 7]: 82 (72–94) %
Geometric LS mean ratio of AUC0–∞ (90% CI) [2, 8]: 39%
Geometric LS mean ratio of Cmax (90% CI) [2, 8]: 82%
Time postdose that mean plasma concentration remained above the LLOQ ([2]; ripretinib 100 mg with rifampin): approximately 36 hours
Stability in human plasma at room temperature ([3]; 16 hours at room temperature under normal laboratory lighting): stable
Stability in human plasma, freeze–thaw ([3]; four cycles of freeze (−20 and −70°C) and thaw (room temperature)): stable
Number of TEAEs assessed as related to study drug ([4]; human, in vivo, 21 days): 78
Participants with TEAEs assessed as related to study drug per the investigator ([4]; human, in vivo, 21 days): 23 (95.8%) n (%)
Total number of TEAEs ([4]; human, in vivo, 21 days): 94
Deaths and serious AEs ([4]; rifampin study, N = 24): No deaths or SAEs occurred
